For the assay, the target named is PI3Kβ (Homo sapiens (Human), UniProt P42338). In words: PI3K isoform TR-FRET enzymatic assay (PI3Kβ). It counts as biochemical. Particulars: 2× Km ATP, 30 minutes at 25° C. Put shortly: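 IC50 came from four-parameter dose-response fits, normalized between DMSO and 1 μM wortmannin controls. The read-out was TR-FRET (615/665 nm) of PIP3 displacing fluorescent PIP3 from Europium GRP-1 after 10 mM EDTA termination. Compounds were incubated with purified heterodimeric PI3Kβ for 30 min at 25° C.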

As a reminder, the IC50 is the concentration at which inhibition is half-maximal. A low value points to greater potency.

Sequence of PI3Kβ (P42338 whole entry, canonical isoform): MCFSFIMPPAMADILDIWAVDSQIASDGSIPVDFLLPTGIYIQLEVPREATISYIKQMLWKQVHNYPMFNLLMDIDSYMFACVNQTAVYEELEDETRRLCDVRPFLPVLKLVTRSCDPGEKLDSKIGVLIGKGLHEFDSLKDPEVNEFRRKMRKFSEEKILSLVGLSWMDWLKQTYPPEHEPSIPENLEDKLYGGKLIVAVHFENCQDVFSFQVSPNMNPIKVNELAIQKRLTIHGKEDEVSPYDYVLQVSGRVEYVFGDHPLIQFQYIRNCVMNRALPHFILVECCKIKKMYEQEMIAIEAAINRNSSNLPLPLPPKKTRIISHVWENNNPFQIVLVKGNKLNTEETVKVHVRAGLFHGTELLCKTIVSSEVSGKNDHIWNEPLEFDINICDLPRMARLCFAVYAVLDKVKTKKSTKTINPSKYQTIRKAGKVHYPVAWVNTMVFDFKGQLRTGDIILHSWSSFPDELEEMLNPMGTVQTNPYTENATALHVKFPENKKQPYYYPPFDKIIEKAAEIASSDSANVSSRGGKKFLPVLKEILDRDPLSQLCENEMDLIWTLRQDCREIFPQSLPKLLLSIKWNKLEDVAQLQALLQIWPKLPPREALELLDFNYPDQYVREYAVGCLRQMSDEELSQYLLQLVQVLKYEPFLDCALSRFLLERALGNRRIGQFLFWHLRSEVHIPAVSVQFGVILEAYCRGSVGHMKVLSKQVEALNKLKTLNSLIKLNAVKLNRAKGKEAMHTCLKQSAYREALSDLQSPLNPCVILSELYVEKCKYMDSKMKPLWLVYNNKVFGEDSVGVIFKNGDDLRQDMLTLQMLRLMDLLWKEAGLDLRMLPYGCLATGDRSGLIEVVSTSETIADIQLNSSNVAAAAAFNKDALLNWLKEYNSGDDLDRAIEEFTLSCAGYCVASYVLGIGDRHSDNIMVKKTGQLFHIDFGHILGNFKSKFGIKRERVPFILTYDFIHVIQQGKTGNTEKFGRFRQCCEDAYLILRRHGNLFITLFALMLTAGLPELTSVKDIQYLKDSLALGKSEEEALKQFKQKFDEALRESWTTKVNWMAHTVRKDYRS
Sequence of PI3Kβ (P27986 whole entry partner, canonical isoform): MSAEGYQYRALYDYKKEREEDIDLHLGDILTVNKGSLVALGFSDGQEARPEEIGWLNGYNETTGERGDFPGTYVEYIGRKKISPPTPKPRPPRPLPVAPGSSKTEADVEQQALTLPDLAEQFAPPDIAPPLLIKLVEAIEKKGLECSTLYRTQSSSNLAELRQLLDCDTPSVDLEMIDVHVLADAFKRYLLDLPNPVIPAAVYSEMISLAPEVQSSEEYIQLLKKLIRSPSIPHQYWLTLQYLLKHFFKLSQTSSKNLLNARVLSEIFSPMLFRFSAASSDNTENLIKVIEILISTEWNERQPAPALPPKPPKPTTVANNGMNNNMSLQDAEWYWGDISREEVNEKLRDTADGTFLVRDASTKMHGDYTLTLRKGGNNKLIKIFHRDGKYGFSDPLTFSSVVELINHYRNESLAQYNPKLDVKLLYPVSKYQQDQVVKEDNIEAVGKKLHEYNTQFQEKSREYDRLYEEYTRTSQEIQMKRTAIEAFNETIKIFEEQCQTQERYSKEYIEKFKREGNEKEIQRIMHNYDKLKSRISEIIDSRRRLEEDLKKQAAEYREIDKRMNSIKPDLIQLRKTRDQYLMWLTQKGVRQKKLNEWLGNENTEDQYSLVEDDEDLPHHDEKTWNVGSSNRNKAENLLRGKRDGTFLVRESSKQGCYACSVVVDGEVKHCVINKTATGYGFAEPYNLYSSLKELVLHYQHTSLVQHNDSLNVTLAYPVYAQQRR

The molecule `CCc1nc2ccccc2c(-n2cnc3c(-c4nnc[nH]4)cc(N4CCOCC4)cc32)c1C` [Example 72, 4-[3-(2-ethyl-3-methylquinolin-4-yl)-7-(4H-1,2,4-triazol-3-yl)benzimidazol-5-yl]morpholine] showed an IC50 of 25 nM. `Cc1nc2c(-c3nnc[nH]3)cc(N3CCOCC3)cc2n1-c1c(C2CC2)cnc2ccccc12` [Example 66, 4-[3-(3-cyclopropylquinolin-4-yl)-2-methyl-7-(4H-1,2,4-triazol-3-yl)benzimidazol-5-yl]morpholine] registered an IC50 of 16 nM. With `Cc1cc(-n2c(C)nc3c(-c4cnc[nH]4)cc(N4CCOCC4)cc32)c2c(Cl)ccc(Cl)c2n1` [Example 333, 4-[3-(5,8-dichloro-2-methylquinolin-4-yl)-7-(1H-imidazol-5-yl)-2-methylbenzimidazol-5-yl]morpholine], the IC50 was found to be 9 nM.

For `CCCc1nc2c(-c3cn[nH]c3)cc(N3CCOCC3)cc2n1-c1ccnc2c(F)ccc(F)c12` [Example 388, 4-(1-(5,8-difluoroquinolin-4-yl)-2-propyl-4-(1H-pyrazol-4-yl)-1H-benzo[d]imidazol-6-yl)morpholine], the IC50 came out at 1100 nM. For the molecule `Fc1ccc(F)c2c(-n3c(C4CC4)nc4c(-c5nccs5)cc(N5CCOCC5)cc43)ccnc12` [Example 241, 4-[2-cyclopropyl-3-(5,8-difluoroquinolin-4-yl)-7-(1,3-thiazol-2-yl)benzimidazol-5-yl]morpholine], the IC50 was determined as 27 nM. `Cc1nnc(-c2cc(N3CCOCC3)cc3c2nc(C2CCC2)n3-c2ccnc3c(Cl)cccc23)[nH]1` [Example 13, 4-(1-(8-chloroquinolin-4-yl)-2-cyclobutyl-4-(5-methyl-4H-1,2,4-triazol-3-yl)-1H-benzo[d]imidazol-6-yl)morpholine] yielded a 50% inhibitory concentration (IC50) of 45 nM. The figure for `Clc1cccc2c(-n3cnc4c(-c5c[nH]cn5)cc(N5CCOCC5)cc43)ccnc12` [Example 332, 4-(1-(8-chloroquinolin-4-yl)-4-(1H-imidazol-4-yl)-1H-benzo[d]imidazol-6-yl)morpholine] is 2 nM. In turn, `Cc1nc2c(-c3cnco3)cc(N3CCOCC3)cc2n1-c1ccnc2c(Cl)cccc12` [Example 277, 4-[3-(8-chloroquinolin-4-yl)-2-methyl-7-(1,3-oxazol-5-yl)benzimidazol-5-yl]morpholine] had an IC50 of 620 nM. To `Cc1nnc(-c2cc(N3CCOCC3)cc3c2nc(C)n3-c2cc(N3CCNCC3)nc3ccccc23)[nH]1` [Example 169, 4-(2-methyl-4-(5-methyl-4H-1,2,4-triazol-3-yl)-1-(2-(piperazin-1-yl)quinolin-4-yl)-1H-benzo[d]imidazol-6-yl)morpholine] belongs 16 nM; to `Fc1ccc(F)c2c(-n3c(C4CC4)nc4c(-c5ncco5)cc(N5CCOCC5)cc43)ccnc12` [Example 231, 4-[2-cyclopropyl-3-(5,8-difluoroquinolin-4-yl)-7-(1,3-oxazol-2-yl)benzimidazol-5-yl]morpholine], 16 nM; to `CCCc1nc2c(-c3nnc[nH]3)cc(N3CCOCC3)cc2n1-c1ccnc2c(F)ccc(F)c12` [Example 45, 4-(1-(5,8-difluoroquinolin-4-yl)-2-propyl-4-(4H-1,2,4-triazol-3-yl)-1H-benzo[d]imidazol-6-yl)morpholine], 19 nM. The molecule `COCCc1nc2c(-c3nnc[nH]3)cc(N3CCOCC3)cc2n1-c1ccnc2c(Cl)cccc12` [Example 116, 4-[3-(8-chloroquinolin-4-yl)-2-(2-methoxyethyl)-7-(4H-1,2,4-triazol-3-yl)benzimidazol-5-yl]morpholine] yielded an IC50 of 21 nM. The figure for `Cc1nc2c(-c3nnc[nH]3)cc(N3CCOCC3)cc2n1-c1ccnc2c(Cl)cc(F)cc12` [Example 35, 4-(1-(8-chloro-6-fluoroquinolin-4-yl)-2-methyl-4-(4H-1,2,4-triazol-3-yl)-1H-benzo[d]imidazol-6-yl)morpholine] is 11 nM; for `CCc1nc2c(-c3cnc[nH]3)cc(N3CCOCC3)cc2n1-c1cc(C)nc2c(F)cccc12` [Example 211, 4-[2-ethyl-3-(8-fluoro-2-methylquinolin-4-yl)-7-(1H-imidazol-5-yl)benzimidazol-5-yl]morpholine] it is 22 nM; for `Cc1nc2c(-c3nnc(Cl)[nH]3)cc(N3CCOCC3)cc2n1-c1ccnc2c(F)ccc(F)c12` [Example 180, 4-[7-(5-chloro-4H-1,2,4-triazol-3-yl)-3-(5,8-difluoroquinolin-4-yl)-2-methylbenzimidazol-5-yl]morpholine] it is 42 nM. In turn, `CCCc1nc2c(-c3nnc[nH]3)cc(N3CCOCC3)cc2n1-c1ccnc2c(F)cccc12` [Example 141, 4-[3-(8-fluoroquinolin-4-yl)-2-propyl-7-(4H-1,2,4-triazol-3-yl)benzimidazol-5-yl]morpholine] gave an IC50 of 10 nM.

For `Cc1nnc(-c2cc(N3CCOCC3)cc3c2nc(CC(C)C)n3-c2ccnc3c(Cl)cccc23)[nH]1` [Example 2, 4-(1-(8-chloroquinolin-4-yl)-2-isobutyl-4-(5-methyl-4H-1,2,4-triazol-3-yl)-1H-benzo[d]imidazol-6-yl)morpholine], the IC50 was 24 nM. The figure for `Cc1nc2c(-c3cscn3)cc(N3CCOCC3)cc2n1-c1ccnc2c(Cl)cccc12` [Example 270, 4-[3-(8-chloroquinolin-4-yl)-2-methyl-7-(1,3-thiazol-4-yl)benzimidazol-5-yl]morpholine] is 36 nM; for `FC(F)c1cc(-n2cnc3c(-c4nnc[nH]4)cc(N4CCOCC4)cc32)c2cccc(Cl)c2n1` [Example 88, 4-[3-[8-chloro-2-(difluoromethyl)quinolin-4-yl]-7-(4H-1,2,4-triazol-3-yl)benzimidazol-5-yl]morpholine] it is 4 nM.

Molecule `Cc1nc2c(-c3nnc[nH]3)cc(N3CCOC[C@H]3C)cc2n1-c1ccnc2c(Cl)cccc12` [Example 100, (3R)-4-[3-(8-chloroquinolin-4-yl)-2-methyl-7-(4H-1,2,4-triazol-3-yl)benzimidazol-5-yl]-3-methylmorpholine] came in with an IC50 of 43 nM. To `CCc1nc2c(-c3nnc(C)[nH]3)cc(N3CCOCC3)cc2n1-c1ccnc2c(F)ccc(F)c12` [Example 152, 4-(1-(5,8-difluoroquinolin-4-yl)-2-ethyl-4-(5-methyl-4H-1,2,4-triazol-3-yl)-1H-benzo[d]imidazol-6-yl)morpholine] belongs 59 nM; to `Cc1c(C2CC2)nc2ccccc2c1-n1c(C)nc2c(-c3nnc[nH]3)cc(N3CCOCC3)cc21` [Example 56, 4-[3-(2-cyclopropyl-3-methylquinolin-4-yl)-2-methyl-7-(4H-1,2,4-triazol-3-yl)benzimidazol-5-yl]morpholine], 72 nM; to `Clc1cccc2c(-n3c(-c4cccnc4)nc4c(-c5nnc[nH]5)cc(N5CCOCC5)cc43)ccnc12` [Example 10, 4-(1-(8-chloroquinolin-4-yl)-2-(pyridin-3-yl)-4-(4H-1,2,4-triazol-3-yl)-1H-benzo[d]imidazol-6-yl)morpholine], 41 nM. To `CCc1nc2c(-c3cnc(Cl)[nH]3)cc(N3CCOCC3)cc2n1-c1ccnc2c(Cl)cccc12` [Example 279, 4-[7-(2-chloro-1H-imidazol-5-yl)-3-(8-chloroquinolin-4-yl)-2-ethylbenzimidazol-5-yl]morpholine] belongs 10 nM; to `Cc1nnc(-c2cc(N3CCOCC3)cc3c2nc(C(C)C)n3-c2ccnc3c(Cl)cccc23)[nH]1` [Example 14, 4-(1-(8-chloroquinolin-4-yl)-2-isopropyl-4-(5-methyl-4H-1,2,4-triazol-3-yl)-1H-benzo[d]imidazol-6-yl)morpholine], 49 nM; to `Cc1nc2c(-c3nnc[nH]3)c(F)c(N3CCOCC3)cc2n1-c1ccnc2c(Cl)cccc12` [Example 86, 4-[3-(8-chloroquinolin-4-yl)-6-fluoro-2-methyl-7-(4H-1,2,4-triazol-3-yl)benzimidazol-5-yl]morpholine], 16 nM.

Molecule `Cc1nc2c(-c3cccnc3)cc(N3CCOCC3)cc2n1-c1ccnc2c(-c3cccnc3)cccc12` [Example 318, 4-[2-methyl-7-pyridin-3-yl-3-(8-pyridin-3-ylquinolin-4-yl)benzimidazol-5-yl]morpholine] came in with an IC50 of 5200 nM.

`Cc1cc(-n2c(C)nc3c(-c4cnc(Cl)[nH]4)cc(N4CCOCC4)cc32)c2cccc(F)c2n1` [Example 282, 4-[7-(2-chloro-1H-imidazol-5-yl)-3-(8-fluoro-2-methylquinolin-4-yl)-2-methylbenzimidazol-5-yl]morpholine] returned an IC50 of 25 nM.

`Cn1cc(-c2nc3c(-c4nnc[nH]4)cc(N4CCOCC4)cc3n2-c2ccnc3c(Cl)cccc23)cn1` [Example 121, 4-[3-(8-chloroquinolin-4-yl)-2-(1-methylpyrazol-4-yl)-7-(4H-1,2,4-triazol-3-yl)benzimidazol-5-yl]morpholine] registered an IC50 of 44 nM. Take `Cc1nc2c(-c3nnc[nH]3)cc(N3CCOCC3)cc2n1-c1ccnc2cc(F)ccc12` [Example 90, 4-[3-(7-fluoroquinolin-4-yl)-2-methyl-7-(4H-1,2,4-triazol-3-yl)benzimidazol-5-yl]morpholine]: the concentration for half-maximal inhibition (IC50) came out at 11 nM. The figure for `Cc1nc2c(-c3n[nH]c(=S)o3)cc(N3CCOCC3)cc2n1-c1ccnc2cc(F)ccc12` [Example 164, 5-(1-(7-fluoroquinolin-4-yl)-2-methyl-6-morpholino-1H-benzo[d]imidazol-4-yl)-1,3,4-oxadiazole-2(3H)-thione] is 130 nM.

`Cc1nnc(-c2cc(N3CCOCC3)cc3c2ncn3-c2cc(-c3cn[nH]c3)nc3ccccc23)[nH]1` [Example 380, 4-(1-(2-(1H-pyrazol-4-yl)quinolin-4-yl)-4-(5-methyl-4H-1,2,4-triazol-3-yl)-1H-benzo[d]imidazol-6-yl)morpholine] came in with an IC50 of 240 nM. The figure for `CCCc1nc2c(-c3nnc[nH]3)cc(N3CCOCC3)cc2n1-c1ccnc2c(Cl)cc(F)cc12` [Example 33, 4-(1-(8-chloro-6-fluoroquinolin-4-yl)-2-propyl-4-(4H-1,2,4-triazol-3-yl)-1H-benzo[d]imidazol-6-yl)morpholine] is 10 nM.

Source of the values: patent US10214519B2, “Phosphatidylinositol 3-kinase inhibitors” (Gilead Sciences, Inc., priority 2016, dated 2019).
